According to patent US10844013B2, “Phenyl amino piperidine mTORC inhibitors and uses thereof” (Navitor Pharmaceuticals, Inc., priority 2016, dated 2020):

Key:
[1] = system: pS6K1 (p-p70 S6 Kinase (Thr389)) in MCF-7 cells; experiment: AlphaLISA Ultra pS6K1 assay; format: cell-based; conditions: Homo sapiens, MCF7, 2 h, 2 hours compound incubation
Experimental: Example 155: AlphaLISA Ultra pS6K1 assay
(§1) Assay Protocol: • 1. Seed MCF-7 cells in Corning 3701 plate and incubate for 20˜24 hour. 12,000˜16,000 cells will be seeded in 36 μL medium per well. • 2. Change the culture medium with fresh medium and incubate for another 2 hours. • 3. Add 12 μL (4×) compounds into the cell plate by HAMILTON. Final DMSO concentration is 0.5%. Incubate for 2 hours. • 4. Aspirate 38 μL by HAMILTON, 10 μL rest per well. • 5. Add 10 μL 2× lysis buffer using HAMILTON; total volume in wells is 20 μL. Allow cells to shake for 30 min. Cover plate by plastic foil and store plate at −80° C. up to analysis. • 6. Thaw cell lysate at RT and transfer 10 ul lysate to assay plate (Optiplate-384). • 7. Add 5 ul acceptor beads into assay plate and incubation for 2 hours • 8. Add 5 ul donor beads and incubation for 2 hours • 9. Count the plate by EnSpire Multimode Plate Reader

[2] = system: pAKT (p-Akt 1/2/3 (Ser473)) in MCF-7 cells; experiment: AlphaLISA Ultra pAKT assay; format: cell-based; conditions: Homo sapiens, MCF7, 2 hours compound incubation
Experimental: Example 156: AlphaLISA Ultra pAKT Assay
as §1, with “1.” for “1. Seed”, “for 20-24” for “for 20˜24”, “hour. 16,000-20,000” for “hour. 12,000˜16,000”, “38 j L” for “38 μL”

| Structure (SMILES) | IC50 [1] [nM] | IC50 [2] [nM] |
| --- | --- | --- |
| CCCN(c1cc(C(=O)N2CCN(c3ccccc3S(N)(=O)=O)CC2)c(C)cc1C)C1CCN(c2ccccc2C#N)CC1 [I-23, 2-(4-(5-((1-(2-Cyanophenyl)piperidin-4-yl)(propyl)amino)-2,4-dimethylbenzoyl)piperazin-1-yl)benzenesulfonamide] | 1000 to 3000 | > 10000 |
| Cc1cc(C)c(N(CC(N)=O)C2CCN(c3ccccc3C#N)CC2)cc1C(=O)N1CCN(c2ccccc2S(N)(=O)=O)CC1 [I-27, 2-((1-(2-Cyanophenyl)piperidin-4-yl)(2,4-dimethyl-5-(4-(2-sulfamoylphenyl)piperazine-1-carbonyl)phenyl)amino)acetamide] | 1000 to 3000 | > 10000 |
| Cc1cc(C)c(C(=O)N2CCN(c3ncccc3C(N)=O)CC2)cc1NC1CCN(c2ccccc2C#N)CC1 [I-28] | 1000 to 3000 | > 10000 |
| Cc1cc(C)c(C(=O)N2CCN(c3ccccc3C(N)=O)CC2)cc1NC1CCN(c2ccccc2C#N)CC1 [I-29] | 10 to 1000 | > 10000 |
| Cc1cc(C)c(C(=O)N2CCN(c3ccccn3)[C@@H](CO)C2)cc1NC1CCN(c2ccccc2C#N)CC1 [I-30] | 10 to 1000 | > 10000 |
| Cc1cc(C)c(C(=O)N2CCN(c3ccccc3)C(C(N)=O)C2)cc1NC1CCN(c2ccccc2C#N)CC1 (stereo not shown) [I-31, 4-(5-{[1-(2-cyanophenyl)piperidin-4-yl]amino}-2,4-dimethylbenzoyl)-1-phenylpiperazine-2-carboxamide] | 10 to 1000 | > 10000 |
| CNC(=O)C1CN(C(=O)c2cc(NC3CCN(c4ccccc4C#N)CC3)c(C)cc2C)CCN1c1ccccc1 (stereo not shown) [I-32, 4-(5-{[1-(2-cyanophenyl)piperidin-4-yl]amino}-2,4-dimethylbenzoyl)-N-methyl-1-phenylpiperazine-2-carboxamide] | 1000 to 3000 | > 10000 |
| Cc1cc(C)c(C(=O)N2CCN(c3ccccc3)[C@@H](C)C2)cc1NC1CCN(c2ccccc2C#N)CC1 [I-33, (S)-2-(4-(2,4-Dimethyl-5-(3-methyl-4-phenylpiperazine-1-carbonyl)phenylamino)piperidin-1-yl)benzonitrile] | 5000 to 10000 | > 10000 |
| Cc1cc(C)c(C(=O)N2CCN(c3ccccn3)[C@@H](C)C2)cc1NC1CCN(c2ccccc2C#N)CC1 [I-34, 2-[4-[2,4-Dimethyl-5-[(3S)-3-methyl-4-(2-pyridyl)piperazine-1-carbonyl]anilino]-1-piperidyl]benzonitrile] | 1000 to 3000 | > 10000 |
| Cc1cccc(N2CCN(C(=O)c3cc(NC4CCN(c5ccccc5Cl)CC4)c(C)cc3C)CC2)n1 [I-35, (5-(1-(2-chlorophenyl)piperidin-4-ylamino)-2,4-dimethylphenyl) (4-(6-methylpyridin-2-yl)piperazin-1-yl) methanone] | 3000 to 5000 | > 10000 |
| Cc1cc(C)c(C(=O)N2CCN(c3ccc(F)cn3)CC2)cc1NC1CCN(c2ccccc2Cl)CC1 [I-36, (5-(1-(2-Chlorophenyl)piperidin-4-ylamino)-2,4-dimethylphenyl)(4-(5-fluoropyridin-2-yl)piperazin-1-yl)methanone] | 5000 to 10000 | > 10000 |
| Cc1cc(C)c(C(=O)N2CCN(c3ccccc3C#N)CC2)cc1NC1CCN(c2ccccc2Cl)CC1 [I-37, 2-(4-(5-(1-(2-Chlorophenyl)piperidin-4-ylamino)-2,4-dimethylbenzoyl)piperazin-1-yl)benzonitrile] | 1000 to 3000 | > 10000 |
| Cc1cc(C)c(C(=O)N2CCN(c3ccccc3)C(C(=O)O)C2)cc1NC1CCN(c2ccccc2C#N)CC1 (stereo not shown) [I-39, 4-(5-{[1-(2-cyanophenyl)piperidin-4-yl]amino}-2,4-dimethylbenzoyl)-1-phenylpiperazine-2-carboxylic Acid] | > 10000 | > 10000 |
| Cc1cc(C)c(C(=O)N2CCN(c3ccccc3S(N)(=O)=O)CC2)c(C)c1NC1CCN(c2ccccc2C#N)CC1 [I-42] | 10 to 1000 | > 10000 |
| C=CCN(c1cc(C(=O)N2CCN(c3ccccc3S(N)(=O)=O)CC2)c(C)cc1C)C1CCN(c2ccccc2C#N)CC1 [I-46, 2-(4-(5-(Allyl(1-(2-cyanophenyl)piperidin-4-yl)amino)-2,4-dimethylbenzoyl)piperazin-1-yl)benzenesulfonamide] | 1000 to 3000 | > 10000 |
| Cc1cc(C)c(C(=O)N2CCN(c3ccccc3)[C@H](C)C2)cc1NC1CCN(c2ccccc2C#N)CC1 [I-47, (R)-2-(4-(2,4-Dimethyl-5-(3-methyl-4-phenylpiperazine-1-carbonyl)phenylamino)piperidin-1-yl)benzonitrile] | 1000 to 3000 | > 10000 |
| CCN(c1cc(C(=O)N2CCN(c3ccccc3S(N)(=O)=O)CC2)c(C)cc1C)C1CCN(c2ccccc2C#N)CC1 [I-51, 2-(4-(5-((1-(2-Cyanophenyl)piperidin-4-yl)(ethyl)amino)-2,4-dimethylbenzoyl)piperazin-1-yl)benzenesulfonamide] | 1000 to 3000 | > 10000 |
| Cc1cc(C)c(C(=O)N2CCN(c3ccccc3S(N)(=O)=O)CC2)cc1NC1CCN(c2ccccc2C#N)CC1(C)C (stereo not shown) [I-52, 2-(4-(5-(1-(2-Cyanophenyl)-3,3-dimethylpiperidin-4-ylamino)-2,4-dimethylbenzoyl)piperazin-1-yl)benzenesulfonamide] | > 10000 | > 10000 |
| Cc1cc(C)c(C(=O)N2CCN(c3ccccc3C#N)[C@@H](CO)C2)cc1NC1CCN(c2ccccc2C#N)CC1 [I-53] | 10 to 1000 | > 10000 |
| Cc1cc(C)c(C(=O)N2CCN(c3ccccc3)[C@@H](CO)C2)cc1NC1CCN(c2ccccc2)CC1 [I-54] | 1000 to 3000 | > 10000 |
| Cc1cc(C)c(C(=O)N2CCN(c3ccccn3)CC2)cc1NC1CCN(c2ccccc2C#N)CC1 [I-55] | 1000 to 3000 | > 10000 |
| Cc1cc(C)c(C(=O)N2CCN(c3ccccc3C#N)CC2)cc1NC1CCN(c2ccccc2)CC1 [I-56] | 1000 to 3000 | > 10000 |
| Cc1cc(C)c(C(=O)N2CCN(c3ccccc3)CC2)cc1NC1CCN(c2ccccc2C#N)CC1 [I-57] | 1000 to 3000 | > 10000 |
| CNC(=O)C1CN(C(=O)c2cc(N(C)C3CCN(c4ccccc4C#N)CC3)c(C)cc2C)CCN1c1ccccc1 (stereo not shown) [I-58] | 10 to 1000 | > 10000 |
| Cc1cc(C)c(N(C)C2CCN(c3ccccc3C#N)CC2)cc1C(=O)N1CCN(c2ccccc2S(N)(=O)=O)CC1 [I-59] | 3000 to 5000 | > 10000 |
| Cc1cc(C)c(C(=O)N2CCN(c3ccccc3S(C)(=N)=O)CC2)cc1NC1CCN(c2ccccc2C#N)CC1 (stereo not shown) [I-62, 2-(4-{[5-(4-{2-[imino(methyl)oxo-λ^6-sulfanyl]phenyl}piperazine-1-carbonyl)-2,4-dimethylphenyl]amino}piperidin-1-yl)benzonitrile] | 10 to 1000 | > 10000 |
| Cc1cc(C)c(C(=O)N2CCN(c3ccccc3)C(CO)C2)cc1NC1CCN(c2ccccc2C#N)CC1 (stereo not shown) [I-63, 2-[4-({5-[3-(Hydroxymethyl)-4-phenylpiperazine-1-carbonyl]-2,4-dimethylphenyl}amino)piperidin-1-yl]benzonitrile] | 10 to 1000 | > 10000 |
| CNC(=O)c1ccccc1N1CCN(C(=O)c2cc(NC3CCN(c4ccccc4C#N)CC3)c(C)cc2C)CC1 [I-64] | 10 to 1000 | > 10000 |
| CNC(=O)c1cc(F)ccc1N1CCN(C(=O)c2cc(NC3CCN(c4ccccc4C#N)CC3)c(C)cc2C)CC1 [I-65] | 10 to 1000 | > 10000 |
